Experimental data: ChEMBL document CHEMBL4229477, “Reevaluating the Substrate Specificity of the L-Type Amino Acid Transporter (LAT1)” (J Med Chem, 2018)

Assays:
[1] = biological target: Large neutral amino acids transporter small subunit 1 (Homo sapiens) (UniProt Q01650); experiment: Cis-inhibition of human LAT1 expressed in TREx HEK293 cells at 200 uM assessed as inhibition of [3H]-gabapentin uptake at 200 uM preincubated for 3 mins at 37 degC followed by washing with choline buffer and measured after 3 hrs by scintillation counting analysis relative to BCH; assay type: cell-based
Sequence of Large neutral amino acids transporter small subunit 1 (Homo sapiens) (Q01650 whole entry): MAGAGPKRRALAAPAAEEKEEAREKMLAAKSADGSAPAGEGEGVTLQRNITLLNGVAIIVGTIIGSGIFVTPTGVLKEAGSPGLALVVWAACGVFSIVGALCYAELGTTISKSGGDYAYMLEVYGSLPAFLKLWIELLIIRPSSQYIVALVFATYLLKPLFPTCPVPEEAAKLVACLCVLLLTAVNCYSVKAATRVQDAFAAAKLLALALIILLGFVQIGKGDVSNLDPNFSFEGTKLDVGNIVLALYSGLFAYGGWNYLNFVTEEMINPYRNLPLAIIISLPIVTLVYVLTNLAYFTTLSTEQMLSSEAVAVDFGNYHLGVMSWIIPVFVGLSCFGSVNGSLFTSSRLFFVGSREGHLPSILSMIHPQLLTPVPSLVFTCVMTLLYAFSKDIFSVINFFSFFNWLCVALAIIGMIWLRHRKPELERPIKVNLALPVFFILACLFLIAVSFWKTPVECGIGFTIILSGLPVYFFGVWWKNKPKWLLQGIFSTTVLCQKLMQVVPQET

[2] = biological target: Large neutral amino acids transporter small subunit 1 (Homo sapiens) (UniProt Q01650); experiment: Trans-stimulation of human LAT1 expressed in TREx HEK293 cells assessed as induction of [3H]-gabapentin efflux at 200 uM after 3 mins by scintillation counting analysis relative to L-phenylalanine; assay type: cell-based
N[C@@H](Cc1ccccc1)C(=O)O [3] = experiment: Binding affinity to LAT1 (unknown origin) by in-vitro cell uptake assay; details: Homo sapiens
N[C@@H](Cc1ccccc1)C(=O)O [4] = experiment: (§1) Substrate activity at recombinant human LAT1 expressed in Xenopus laevis oocytes assessed as Km by measuring L-[14C]-leucine uptake by Eadie-Hofstee plot method; assay type: cell-based
N[C@H](Cc1ccccc1)C(=O)O = experiment: as §1; assay type: cell-based

Sequence of Large neutral amino acids transporter small subunit 1 (Homo sapiens), Q01650 (Q01650 whole entry): as above

Compound: CNC(=O)c1cccc(C[C@H](N)C(=O)O)c1
- inhibition [1]: 88%
- Activity [2]: 100%

Compound: N[C@@H](Cc1cccc(CC(=O)O)c1)C(=O)O
- inhibition [1]: 25%
- Activity [2]: 24%

Compound: CSCC[C@](N)(Cc1ccccc1)C(=O)O
- inhibition [1]: 21%
- Activity [2]: 56%

Compound: N[C@@H](Cc1c[nH]cn1)C(=O)O
- inhibition [1]: 92%
- Activity [2]: 140%

Compound: CSCC[C@H](N)C(=O)O
- Activity [2]: 89%

Compound: CC(=O)Nc1cccc(C[C@H](N)C(=O)O)c1
- inhibition [1]: 85%
- Activity [2]: 110%

Compound: N[C@@H](Cc1cccc(O)c1)C(=O)O
- inhibition [1]: 97%
- Activity [2]: 96%

Compound: Cc1cc(C[C@H](N)C(=O)O)cc(C(=O)O)c1
- inhibition [1]: 30%
- Activity [2]: 28%

Compound: NCCCC[C@H](N)C(=O)O
- inhibition [1]: -2.1%
- Activity [2]: 33%

Compound: Large neutral amino acids transporter small subunit 1 (Homo sapiens), Q01650
- Km (N[C@@H](Cc1ccccc1)C(=O)O [3]): 11 µM
- Km (N[C@@H](Cc1ccccc1)C(=O)O [4]): 14.2 µM
- Km (N[C@H](Cc1ccccc1)C(=O)O): 121 µM

Compound: N[C@@H](Cc1cccc(C(=O)O)c1)C(=O)O
- inhibition [1]: 69%
- Activity [2]: 56%

Compound: COC(=O)c1cccc(C[C@@H](N)C(=O)O)c1
- inhibition [1]: 40%
- Activity [2]: 41%

Compound: N[C@@H](Cc1ccccc1)C(=O)O
- Activity [2]: 100%

Compound: N[C@@](Cc1ccccc1)(Cc1c[nH]cn1)C(=O)O
- inhibition [1]: 19%
- Activity [2]: 13%

Compound: COC(=O)c1cc(C)cc(C[C@H](N)C(=O)O)c1
- inhibition [1]: 71%
- Activity [2]: 56%

Compound: Nc1cccc(C[C@H](N)C(=O)O)c1
- inhibition [1]: 100%
- Activity [2]: 100%

Compound: N[C@H](Cc1ccccc1)C(=O)O
- inhibition [1]: 74%
- Activity [2]: 96%

Compound: CC(C)(C)c1cccc(C[C@H](N)C(=O)O)c1
- inhibition [1]: 101%
- Activity [2]: 44%

Compound: N#Cc1cccc(C[C@H](N)C(=O)O)c1
- inhibition [1]: 67%
- Activity [2]: 70%

Compound: CC(C)[C@@H](N)C(=O)O
- inhibition [1]: 11%
- Activity [2]: 41%

Compound: N[C@H](Cc1c[nH]cn1)C(=O)O
- inhibition [1]: 33%
- Activity [2]: 78%

Compound: CSCC[C@@](N)(Cc1ccccc1)C(=O)O
- inhibition [1]: -0.2%
- Activity [2]: 27%

Compound: COC(=O)c1cccc(C[C@H](N)C(=O)O)c1
- inhibition [1]: 81%
- Activity [2]: 89%

Compound: N[C@@H](Cc1cccc(Cc2ccccc2)c1)C(=O)O
- Activity [2]: 29%

Compound: N[C@@H](Cc1cccc(CO)c1)C(=O)O
- inhibition [1]: 99%
- Activity [2]: 120%

Compound: CC[C@H](C)[C@@H](N)C(=O)O
- inhibition [1]: 18%
- Activity [2]: 78%

Compound: COC(=O)Cc1cccc(C[C@H](N)C(=O)O)c1
- inhibition [1]: 72%
- Activity [2]: 52%

Compound: N[C@@H](Cc1c[nH]c2ccccc12)C(=O)O
- Activity [2]: 59%

Compound: CSCC[C@@H](N)C(=O)O
- inhibition [1]: 56%
- Activity [2]: 110%

Compound: N[C@@H](Cc1cccc(C(=O)OCCO)c1)C(=O)O
- inhibition [1]: 81%
- Activity [2]: 74%

Compound: N[C@H](Cc1c[nH]c2ccccc12)C(=O)O
- inhibition [1]: 29%
- Activity [2]: 81%

Compound: Cc1cccc(C[C@H](N)C(=O)O)c1
- Activity [2]: 140%

Compound: N=C(N)NCCC[C@H](N)C(=O)O
- Activity [2]: 28%

Compound: NCc1cccc(C[C@H](N)C(=O)O)c1
- inhibition [1]: 27%
- Activity [2]: 78%

Compound: CC[C@H](C)[C@H](N)C(=O)O
- Activity [2]: 93%

Compound: N[C@@H](CCC(=O)O)C(=O)O
- inhibition [1]: -2.4%
- Activity [2]: 27%

Compound: CC(=O)c1cccc(C[C@H](N)C(=O)O)c1
- inhibition [1]: 100%
- Activity [2]: 96%

Compound: N[C@H](Cc1ccc(O)cc1)C(=O)O
- inhibition [1]: 35%
- Activity [2]: 85%

Compound: COC(=O)c1ccc(C[C@H](N)C(=O)O)cc1
- inhibition [1]: 37%
- Activity [2]: 67%

Compound: CC(C)[C@H](N)C(=O)O
- inhibition [1]: 43%
- Activity [2]: 100%

Compound: N[C@@H](Cc1cn(Cc2ccccc2)cn1)C(=O)O
- inhibition [1]: 74%
- Activity [2]: 81%

Compound: NCC(=O)O
- Activity [2]: 29%

Compound: N[C@@H](Cc1ccc(O)cc1)C(=O)O
- Activity [2]: 96%

Compound: N[C@@H](Cc1cccc(C(F)(F)F)c1)C(=O)O
- inhibition [1]: 87%
- Activity [2]: 59%

Compound: NC(Cc1ccccc1)(Cc1ccccc1)C(=O)O
- inhibition [1]: 11%
- Activity [2]: 23%

Compound: CC(C)(C)OC(=O)c1cccc(C[C@H](N)C(=O)O)c1
- inhibition [1]: 99%
- Activity [2]: 70%

Compound: CC(C)C[C@@](N)(Cc1ccccc1)C(=O)O
- inhibition [1]: 2.1%
- Activity [2]: 27%

Compound: N[C@H](Cc1cccc(C(=O)O)c1)C(=O)O
- inhibition [1]: 9%
- Activity [2]: 31%

Compound: N[C@@H](Cc1cccc(-c2ccccc2)c1)C(=O)O
- Activity [2]: 29%

Compound: CC(=O)Oc1cccc(C[C@H](N)C(=O)O)c1
- inhibition [1]: 54%
- Activity [2]: 37%

Compound: Cc1ccc(C[C@H](N)C(=O)O)cc1
- Activity [2]: 100%

Compound: CC(C)C[C@](N)(Cc1ccccc1)C(=O)O
- inhibition [1]: 15%
- Activity [2]: 19%
